Earlier results in patent US20250331550A1, “AEROSOL-GENERATING ARTICLE EMBEDDED AVERSIVE AGENT” (PHILIP MORRIS PRODUCTS S.A., priority 2022, published 2025).
Counter-ions that a name gives are not always drawn.

Tested on: test panel
Conditions: reciprocal of the dilution that still has a bitter taste; quinine hydrochloride set at 200,000

| Compound | Bitterness value |
| --- | --- |
| CC1=C[C@H]2[C@H]3[C@H](C(C)=C4[C@H]5OC(=O)[C@@H](C)[C@@H]5CC[C@](C)(O)[C@@H]43)[C@@]13[C@@H]2[C@@](C)(O)CC[C@H]1[C@H](C)C(=O)O[C@@H]13 [Absinthin, absinthin] | 3,000,000 |
| C[C@@]12C[C@@H](c3ccoc3)OC(=O)[C@@H]1CC[C@]1(C)[C@H]2[C@@H]2C=C[C@@]1(O)C(=O)O2 [Columbin, columbin] | 60,000,000 |
| COC1=C[C@@H](C)[C@@H]2C[C@H]3OC(=O)C[C@H]4C(C)=C(OC)C(=O)[C@H]([C@@]2(C)C1=O)[C@@]34C [Quassin, quassin] | 13,000,000 |
| C=C[C@H]1C[N@@]2CC[C@H]1C[C@H]2[C@H](O)c1ccnc2ccc(OC)cc12 [Quinine hydrochloride, quinine hydrochloride] | 200,000 |
| amarogentin | 58,000,000 |
